Test system: alternansucrase
Assay: Comparison of acceptor strengths with alternansucrase, relative amount of alternan formed
Conditions: for Alternan (Rel. %): 45 μL 10% (w/v) sucrose, 45 μL 10% (w/v) acceptor, 10 μL alternansucrase, pH 5.4, room temperature, less alternan = stronger acceptor; for acceptor strength for alternansucrase, in words: text summary of Table I

Alternan (Rel. %)	acceptor strength for alternansucrase, in words	reduction in the amount of alternan formed (acceptor added at the same initial level as other disaccharides) [%]	Compound
89	–	–	O=CC[C@@H](O)[C@@H](O)[C@H](O)CO [2-deoxy-D-galactose]
59	–	–	O=CC[C@@H](O)[C@H](O)[C@H](O)CO [2-deoxy-D-glucose]
81	–	–	O=CC[C@H](O)[C@H](O)CO [2-deoxy-D-ribose]
31	–	–	O=C[C@H](O)[C@@H](O[C@H]1O[C@H](CO)[C@@H](O)[C@H](O)[C@H]1O)[C@H](O)[C@H](O)CO[C@H]1O[C@H](CO)[C@@H](O)[C@H](O)[C@H]1O [3′-O-α-D-Glc isomaltose, 3-O-α-D-glucopyranosyl-6-O-α-D-glucopyranosyl-D-glucose]
75	–	–	O=C[C@H](O)[C@H](O)[C@H](O)[C@H](O)CO [D-allose]
92	–	–	O=C[C@@H](O)[C@H](O)[C@H](O)[C@H](O)CO [D-altrose]
99	–	–	O=C[C@@H](O)[C@H](O)[C@H](O)CO [D-arabinose]
83	–	–	O=C[C@H](O)[C@@H](O)[C@@H](O)[C@H](O)CO [D-galactose]
99	–	–	O=C[C@@H](O)[C@@H](O)[C@H](O)CO [D-lyxose]
90	–	–	O=C[C@@H](O)[C@@H](O)[C@H](O)[C@H](O)CO [D-mannose]
61	–	–	C[C@@H](O)[C@@H](O)[C@H](O)[C@@H](O)C=O [D-quinovose]
93	–	–	O=C[C@H](O)[C@H](O)[C@H](O)CO [D-ribose]
77	–	–	O=C[C@@H](O)[C@@H](O)[C@@H](O)[C@H](O)CO [D-talose]
86	–	–	O=C[C@H](O)[C@@H](O)[C@H](O)CO [D-xylose]
75	–	–	O=C[C@H](O)[C@@H](O)[C@@H](O)CO [L-arabinose]
94	–	–	C[C@H](O)[C@@H](O)[C@@H](O)[C@H](O)C=O [L-fucose]
63	–	–	O=C[C@@H](O)[C@H](O)[C@@H](O)[C@@H](O)CO [L-glucose]

Alternan (Rel. %)	acceptor strength for alternansucrase, in words	reduction in the amount of alternan formed (acceptor added at the same initial level as other disaccharides) [%]	Compound
92	–	–	O=C[C@H](O)[C@H](O)[C@@H](O)CO [L-lyxose]
96	–	–	C[C@H](O)[C@H](O)[C@@H](O)[C@@H](O)C=O [L-rhamnose]
88	–	–	CC(=O)N[C@H]1C(O)O[C@H](CO)[C@H](O)[C@@H]1O (stereo partly drawn) [N-acetyl-D-galactosamine]
90	–	–	CC(=O)N[C@H]1C(O)O[C@H](CO)[C@@H](O)[C@@H]1O (stereo partly drawn) [N-acetyl-D-glucosamine]
93	–	–	CC(=O)N[C@@H]1C(O)O[C@H](CO)[C@@H](O)[C@@H]1O (stereo partly drawn) [N-acetyl-D-mannosamine]
72	–	–	O=C[C@H](O)[C@@H](O)[C@H](O[C@@H]1O[C@H](CO)[C@@H](O)[C@H](O)[C@H]1O)[C@H](O)CO [cellobiose]
101	–	–	OC[C@@H](O)[C@H](O)[C@H](O)[C@@H](O)CO [dulcitol]
90	–	–	O=C[C@@H](O)[C@H](O[C@@H]1O[C@H](CO)[C@H](O)[C@H](O)[C@H]1O)[C@H](O)CO [galactosyl-arabinose, 3-O-β-D-galactopyranosyl-D-arabinose]
81	–	19	OC[C@H]1O[C@H](O[C@@H]2COC(O)(CO)[C@@H](O)[C@@H]2O)[C@H](O)[C@@H](O)[C@@H]1O (stereo partly shown) [leucrose]
18	excellent acceptor	–	OC[C@@H](O)[C@@H](O[C@H]1O[C@H](CO)[C@@H](O)[C@H](O)[C@H]1O)[C@H](O)[C@@H](O)CO [maltitol]
11	excellent acceptor	–	OC[C@H]1O[C@H](O[C@H]2[C@H](O)[C@@H](O)[C@H](O)O[C@@H]2CO)[C@H](O)[C@@H](O)[C@@H]1O [maltose]
100	–	–	OC[C@@H](O)[C@@H](O)[C@H](O)[C@H](O)CO [mannitol]
45	relatively good acceptors	–	OC[C@H]1O[C@H](OCC2O[C@@H](O)[C@H](O)[C@@H](O)[C@@H]2O)[C@H](O)[C@@H](O)[C@H]1O (stereo partly shown) [melibiose]
23	–	–	OC[C@H]1O[C@H](O[C@H]2[C@H](O)[C@@H](CO)OC(O)[C@@H]2O)[C@H](O)[C@@H](O)[C@@H]1O (stereo partly shown) [nigerose]
69	–	–	OC[C@H]1O[C@H](OC[C@H]2OC(O)(CO)[C@@H](O)[C@@H]2O)[C@H](O)[C@@H](O)[C@@H]1O (stereo partly shown) [palatinose]
80	–	–	OC[C@H]1O[C@@H](O[C@H]2C(O)O[C@H](CO)[C@@H](O)[C@@H]2O)[C@H](O)[C@@H](O)[C@@H]1O (stereo partly shown) [sophorose]
82	–	–	OC[C@@H](O)[C@@H](O)[C@H](O)[C@@H](O)CO [sorbitol]

Further lines, the compound ahead of its results:

Compound	Alternan (Rel. %)	acceptor strength for alternansucrase, in words	reduction in the amount of alternan formed (acceptor added at the same initial level as other disaccharides) [%]
OC[C@H]1O[C@@H](O[C@@H]2[C@@H](CO)OC(O)(CO)[C@H]2O)[C@H](O)[C@@H](O)[C@H]1O (mixture of isomers) [lactulose]	91	–	–
OC[C@H]1O[C@H](OC[C@H]2O[C@H](O[C@H]3O[C@H](CO[C@H]4O[C@H](CO)[C@@H](O)[C@H](O)[C@H]4O)[C@@H](O)[C@H](O)[C@H]3O)[C@H](O)[C@@H](O)[C@@H]2O)[C@H](O)[C@@H](O)[C@@H]1O [6,6′-di-O-α-D-Glc-trehalose, 6,6′-di-O-α-D-glucopyranosyl-α,α-trehalose]	54	relatively good acceptors	–
OC[C@H]1O[C@H](OC[C@H]2O[C@H](O[C@H]3O[C@H](CO)[C@@H](O)[C@H](O)[C@H]3O)[C@H](O)[C@@H](O)[C@@H]2O)[C@H](O)[C@@H](O)[C@@H]1O [6-O-α-D-Glc-trehalose, 6-O-α-D-glucopyranosyl-α,α-trehalose]	56	relatively good acceptors	–
OC[C@H]1O[C@H](OC[C@H]2O[C@H](OC[C@H]3O[C@H](O[C@H]4[C@H](O)[C@@H](O)C(O)O[C@@H]4CO)[C@H](O)[C@@H](O)[C@@H]3O)[C@H](O)[C@@H](O)[C@@H]2O)[C@H](O)[C@@H](O)[C@@H]1O (stereo partly drawn) [6″-O-α-D-Glc panose]	36	–	–
O=C(CO)[C@@H](O)[C@H](O)[C@H](O)CO [D-fructose]	78	–	–
O=C(CO)[C@H](O)[C@H](O)[C@H](O)CO [D-psicose]	85	–	–
O=C(CO)[C@H](O)[C@@H](O)[C@H](O)CO [D-sorbose]	97	–	–
O=C(CO)[C@@H](O)[C@@H](O)[C@H](O)CO [D-tagatose]	65	–	–
O=C(CO)[C@@H](O)[C@H](O)[C@@H](O)CO [L-sorbose]	88	–	–
OC[C@H]1O[C@@H]2OC[C@H]3O[C@H](O[C@@H]4[C@@H](O)[C@@H](OC[C@H]5O[C@H](O[C@H]([C@H]2O)[C@@H]1O)[C@H](O)[C@@H](O)[C@@H]5O)O[C@H](CO)[C@H]4O)[C@H](O)[C@@H](O)[C@@H]3O [cycloGlc4 (cyclo-alternan), cycloalternan]	90	–	–
OC[C@H]1O[C@@](CO)(O[C@H]2O[C@H](CO[C@@H]3O[C@H](CO)[C@@H](O)[C@H](O)[C@H]3O)[C@@H](O)[C@H](O)[C@H]2O)[C@@H](O)[C@@H]1O [gentianose]	66	–	–
OC[C@H]1O[C@H](OC[C@H]2OC(O)[C@H](O)[C@@H](O)[C@@H]2O)[C@H](O)[C@@H](O)[C@@H]1O (stereo partly shown) [isomaltose]	44	–	–
OC[C@H]1O[C@H](OC[C@H]2O[C@H](OC[C@H]3OC(O)[C@H](O)[C@@H](O)[C@@H]3O)[C@H](O)[C@@H](O)[C@@H]2O)[C@H](O)[C@@H](O)[C@@H]1O (stereo partly shown) [isomaltotriose]	50	–	–
OC[C@H]1O[C@H](O[C@H]2C(O)O[C@H](CO)[C@@H](O)[C@@H]2O)[C@H](O)[C@@H](O)[C@@H]1O (stereo partly shown) [kojibiose]	27	–	–
OC[C@H]1O[C@H](O[C@H]2[C@@H](O[C@H]3C(O)O[C@H](CO)[C@@H](O)[C@@H]3O)O[C@H](CO)[C@@H](O)[C@@H]2O)[C@H](O)[C@@H](O)[C@@H]1O (stereo partly shown) [kojitriose]	86	–	–
OC[C@H]1O[C@@H](O[C@H]2[C@H](O)[C@@H](O)C(O)O[C@@H]2CO)[C@H](O)[C@@H](O)[C@H]1O (stereo partly shown) [lactose]	79	–	–
OC[C@H]1O[C@@H](O[C@H]2[C@H](O)[C@@H](CO)OC(O)[C@@H]2O)[C@H](O)[C@@H](O)[C@@H]1O (stereo partly shown) [laminaribiose]	58	–	–
OC[C@H]1O[C@@](CO)(O[C@H]2O[C@H](CO)[C@@H](O)[C@H](O)[C@H]2O)[C@@H](O[C@H]2O[C@H](CO)[C@@H](O)[C@H](O)[C@H]2O)[C@@H]1O [melezitose]	90	–	–
O[C@H]1[C@H](O)[C@@H](O)[C@H](O)[C@@H](O)[C@H]1O [myo-inositol]	99	–	–
OC[C@H]1O[C@H](OC[C@H]2O[C@H](O[C@H]3[C@H](O)[C@@H](O)C(O)O[C@@H]3CO)[C@H](O)[C@@H](O)[C@@H]2O)[C@H](O)[C@@H](O)[C@@H]1O (stereo partly shown) [panose]	25	–	–
OC[C@H]1O[C@H](OC[C@H]2O[C@@](CO)(O[C@H]3O[C@H](CO)[C@@H](O)[C@H](O)[C@H]3O)[C@@H](O)[C@@H]2O)[C@H](O)[C@@H](O)[C@H]1O [planteose]	76	–	–
OC[C@H]1O[C@H](OC[C@H]2O[C@H](O[C@]3(CO)O[C@H](CO)[C@@H](O)[C@@H]3O)[C@H](O)[C@@H](O)[C@@H]2O)[C@H](O)[C@@H](O)[C@H]1O [raffinose]	67	relatively good acceptors	–
OC[C@H]1O[C@H](OC[C@H]2O[C@H](OC[C@H]3O[C@H](O[C@]4(CO)O[C@H](CO)[C@@H](O)[C@@H]4O)[C@H](O)[C@@H](O)[C@@H]3O)[C@H](O)[C@@H](O)[C@H]2O)[C@H](O)[C@@H](O)[C@H]1O [stachyose]	89	–	–
